target: T1, androgen receptor (AR) (Homo sapiens, UniProt P10275, T878A); assay: AR reporter assay in LNCaP cells expressing ARR2PB-FireflyLuc and CMV-RenillaLuc, antagonist mode (% remaining activity, IC50); format: cell-based; details: 48 h at 37° C., class symbols A-D, read-out: IC50
T1 construct: LNCaP cells expressing ARR2PB-FireflyLuc and CMV-RenillaLuc; endogenous in cells; host or cells: LNCaP cells carrying ARR2PB-FireflyLuc and CMV-RenillaLuc reporters
T1 sequence (P10275 1-920 T878A): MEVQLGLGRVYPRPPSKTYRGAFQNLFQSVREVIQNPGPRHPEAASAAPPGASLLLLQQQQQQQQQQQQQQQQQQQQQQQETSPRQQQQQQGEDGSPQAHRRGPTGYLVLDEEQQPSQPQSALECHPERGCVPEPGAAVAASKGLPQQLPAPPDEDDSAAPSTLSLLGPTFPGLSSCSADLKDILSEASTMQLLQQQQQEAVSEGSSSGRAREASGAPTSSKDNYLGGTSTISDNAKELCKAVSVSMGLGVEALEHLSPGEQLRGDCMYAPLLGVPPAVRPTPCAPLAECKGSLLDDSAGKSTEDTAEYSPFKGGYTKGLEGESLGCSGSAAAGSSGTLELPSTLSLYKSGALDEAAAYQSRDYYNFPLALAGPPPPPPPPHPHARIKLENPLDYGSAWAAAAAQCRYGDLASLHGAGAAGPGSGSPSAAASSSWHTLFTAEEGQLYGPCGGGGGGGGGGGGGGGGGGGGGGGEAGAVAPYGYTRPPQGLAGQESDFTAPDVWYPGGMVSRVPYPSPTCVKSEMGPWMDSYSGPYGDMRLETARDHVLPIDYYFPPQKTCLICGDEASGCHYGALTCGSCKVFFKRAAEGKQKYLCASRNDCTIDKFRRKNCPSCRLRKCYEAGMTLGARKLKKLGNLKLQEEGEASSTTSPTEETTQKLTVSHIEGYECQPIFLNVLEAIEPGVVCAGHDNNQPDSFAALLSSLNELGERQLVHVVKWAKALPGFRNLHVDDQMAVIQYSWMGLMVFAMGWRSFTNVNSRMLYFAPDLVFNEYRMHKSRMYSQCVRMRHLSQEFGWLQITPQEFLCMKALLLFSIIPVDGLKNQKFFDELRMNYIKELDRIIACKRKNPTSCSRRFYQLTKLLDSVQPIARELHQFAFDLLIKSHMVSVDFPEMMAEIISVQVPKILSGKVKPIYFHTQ
Protocol: LNCaP cells expressing ARR2PB-FireflyLuc and CMV-RenillaLuc were treated with indicated concentrations of test compounds, enzalutamide (negative control), or DHT (positive control)+/−0.5 nM DHT for 48 h at 37° C. […] Remaining activity (antagonist mode) was calculated as % Remaining Activity=100×[(Readsample−LCave)/(HCave−LCave)] where HC is cells treated with 0.5 nM DHT only and LC is cells treated with 10 uM enzalutamide+0.5 nM DHT. Activation (agonist mode) was calculated as % Activation=100×[(ReadSample−LCave)/(HCave−LCave)] where HC is cells treated with 1 uM DHT and LC is cells treated with DMSO. Dose response curves and IC50 values were calculated using non-linear regression analysis in XLfit.
The designation “A” indicates an IC50 value of >10 μM, “B” indicates an IC50 value between 1 μM and 10 μM; “C” indicates an IC50 value between 100 nM and 1 μM; and “D” indicates an IC50 value of less than 100 nM.

| Compound | IC50 |
| --- | --- |
| CNC(=O)N1CCCc2nc(-c3n[nH]c4cc(F)c(F)cc34)ccc21 [Compound 38] | 1000 to 10000 nM |
| Fc1cc2[nH]nc(-c3ccc4c(n3)COCC4)c2cc1F [Compound 39] | 1000 to 10000 nM |
| Fc1cc2[nH]nc(-c3ccc4c(n3)CCOC4)c2cc1F [Compound 40] | 1000 to 10000 nM |
| O=C1NCc2nc(-c3n[nH]c4cc(F)c(F)cc34)ccc21 [Compound 41] | 1000 to 10000 nM |
| CN1Cc2nc(-c3n[nH]c4cc(F)c(F)cc34)ccc2C1=O [Compound 42] | 1000 to 10000 nM |
| Cc1cc(F)cc2c(-c3ccc4c(n3)CCCN4)n[nH]c12 [Compound 43] | 100 to 1000 nM |
| Cc1cc2[nH]nc(-c3ccc4c(n3)CCCN4)c2cc1F [Compound 44] | 100 to 1000 nM |
| Cc1cc2c(-c3ccc4c(n3)CCCN4)n[nH]c2cc1F [Compound 45] | 100 to 1000 nM |
| CC1CCNc2ccc(-c3n[nH]c4cc(F)c(F)cc34)nc21 (stereo not shown) [Compound 46] | < 100 nM |
| CC1CCNc2cnc(-c3n[nH]c4cc(F)c(F)cc34)cc21 (stereo not shown) [Compound 49] | 1000 to 10000 nM |
| CC1(C)CCNc2ccc(-c3n[nH]c4cc(F)c(F)cc34)nc21 [Compound 50] | 100 to 1000 nM |
| CC1NC(=O)c2ccc(-c3n[nH]c4cc(F)c(F)cc34)nc21 (stereo not shown) [Compound 51] | 100 to 1000 nM |
| CC1(C)NC(=O)c2ccc(-c3n[nH]c4cc(F)c(F)cc34)nc21 [Compound 52] | 100 to 1000 nM |
| Cc1nc(-c2n[nH]c3cc(F)c(F)cc23)ccc1N [Compound 53] | 1000 to 10000 nM |
| CCc1nc(-c2n[nH]c3cc(F)c(F)cc23)ccc1N [Compound 54] | 100 to 1000 nM |
| Fc1cc2[nH]nc(-c3ncc4c(n3)CCCN4)c2cc1F [Compound 55] | > 10000 nM |
| Fc1cc2[nH]nc(-c3cc4c(cn3)NCCC4)c2cc1F [Compound 56] | 1000 to 10000 nM |
| c1ccc2c(-c3cnc4c(c3)NCCC4)n[nH]c2c1 [Compound 57] | > 10000 nM |
| Fc1cc2[nH]nc(-c3cnc4c(n3)CCCN4)c2cc1F [Compound 58] | > 10000 nM |
| Cc1cc(-c2n[nH]c3cc(F)c(F)cc23)nc2c1NCCC2 [Compound 59] | 100 to 1000 nM |
| CC1(C)CCNc2cnc(-c3n[nH]c4cc(F)c(F)cc34)cc21 [Compound 60] | > 10000 nM |
| FC(F)(F)c1ccc(-c2n[nH]c3ccccc23)nc1 [Compound 61] | 1000 to 10000 nM |
| Fc1ccc(-c2n[nH]c3ccccc23)nc1 [Compound 62] | 1000 to 10000 nM |
| N#Cc1cccc2c(-c3ccc4ccc(F)cc4n3)n[nH]c12 [Compound 63] | < 100 nM |
| c1ccc2c(-c3ccc(N4CCNCC4)cn3)n[nH]c2c1 [Compound 64] | > 10000 nM |
| CN1CCN(c2ccc(-c3n[nH]c4ccccc34)nc2)CC1 [Compound 65] | > 10000 nM |

| Compound | IC50 |
| --- | --- |
| c1ccc2c(-c3cc(N4CCNCC4)ccn3)n[nH]c2c1 [Compound 66] | > 10000 nM |
| CN1CCN(c2ccnc(-c3n[nH]c4ccccc34)c2)CC1 [Compound 67] | > 10000 nM |
| CN1CCN(c2cccc(-c3n[nH]c4ccccc34)n2)CC1 [Compound 68] | > 10000 nM |
| Fc1cc2[nH]nc(-c3ccc4c(n3)OCCN4)c2cc1F [Compound 69] | > 10000 nM |
| CC1CNc2ccc(-c3n[nH]c4cc(F)c(F)cc34)nc2O1 (stereo not shown) [Compound 70] | > 10000 nM |
| CC1(C)NCc2ccc(-c3n[nH]c4cc(F)c(F)cc34)nc21 [Compound 71] | > 10000 nM |
| CC(C)(O)c1ccc(-c2n[nH]c3cc(F)c(F)cc23)nc1 [Compound 72] | > 10000 nM |
| CC(C)(O)c1ccc(-c2n[nH]c3cc(F)c(F)cc23)cn1 [Compound 73] | > 10000 nM |
| Fc1cc2[nH]nc(-c3ccc4c(n3)NCCO4)c2cc1F [Compound 74] | 1000 to 10000 nM |
| CN1CCOc2ccc(-c3n[nH]c4cc(F)c(F)cc34)nc21 [Compound 75] | 1000 to 10000 nM |
| CC(C)N1CCOc2ccc(-c3n[nH]c4cc(F)c(F)cc34)nc21 [Compound 76] | 1000 to 10000 nM |
| CC1(C)CCNc2ccc(-c3n[nH]c4ccccc34)nc21 [Compound 77] | 100 to 1000 nM |
| CC1(C)CCNc2ccc(-c3n[nH]c4ccc(F)cc34)nc21 [Compound 78] | 100 to 1000 nM |
| CCOC(=O)c1coc(-c2n[nH]c3c(C)cccc23)n1 [Compound 79] | > 10000 nM |
| Cc1cc(-c2n[nH]c3cc(F)c(F)cc23)nc2c1NC(=O)CC2 [Compound 80] | 1000 to 10000 nM |
| c1ccc(-c2cc(-c3ccc4c(n3)CCCN4)n[nH]2)cc1 [Compound 81] | > 10000 nM |
| Cc1[nH]nc(-c2ccc3c(n2)CCCN3)c1C [Compound 82] | > 10000 nM |
| c1cc2c(nc1-c1n[nH]c3c1COCC3)CCCN2 [Compound 83] | > 10000 nM |
| c1ccc(-c2cc(-c3ccc4c(n3)CCCN4)n[nH]2)nc1 [Compound 84] | > 10000 nM |
| N#Cc1cccc2c(-c3ccc4ncccc4n3)nn(C3CCCCO3)c12 (stereo not shown) [Compound 85] | > 10000 nM |
| NCc1cccc2c(-c3ccc4ncccc4n3)n[nH]c12 [Compound 86] | 100 to 1000 nM |
| CC(C)NCc1cccc2c(-c3ccc4ncccc4n3)n[nH]c12 [Compound 87] | 1000 to 10000 nM |
| CC(C)c1nc(-c2n[nH]c3cc(F)c(F)cc23)ccc1N [Compound 88] | 1000 to 10000 nM |
| CC(C)Oc1nc(-c2n[nH]c3cc(F)c(F)cc23)ccc1N [Compound 89] | 1000 to 10000 nM |
| CCOc1nc(-c2n[nH]c3cc(F)c(F)cc23)ccc1N [Compound 90] | 1000 to 10000 nM |
| COc1nc(-c2n[nH]c3cc(F)c(F)cc23)ccc1N [Compound 91] | 100 to 1000 nM |

| Compound | IC50 |
| --- | --- |
| Nc1ccc(-c2n[nH]c3cc(F)c(F)cc23)nc1C(F)(F)F [Compound 92] | 100 to 1000 nM |
| Nc1ccc(-c2n[nH]c3cc(F)c(F)cc23)nc1Cl [Compound 93] | 100 to 1000 nM |
| CNc1ccc(-c2n[nH]c3cc(F)c(F)cc23)nc1C [Compound 94] | 1000 to 10000 nM |
| CCNc1ccc(-c2n[nH]c3cc(F)c(F)cc23)nc1C [Compound 95] | 1000 to 10000 nM |
| CC(=O)Nc1ccc(-c2n[nH]c3cc(F)c(F)cc23)nc1C [Compound 96] | > 10000 nM |
| CC(=O)N(C)c1ccc(-c2n[nH]c3cc(F)c(F)cc23)nc1C [Compound 97] | > 10000 nM |
| Cc1nc(-c2n[nH]c3cc(F)c(F)cc23)ccc1N(C)C [Compound 98] | 1000 to 10000 nM |
| COc1ccc(-c2n[nH]c3cc(F)c(F)cc23)nc1C [Compound 99] | 100 to 1000 nM |
| CNC(=O)c1ccc(-c2n[nH]c3cc(F)c(F)cc23)nc1C [Compound 100] | > 10000 nM |
| Cc1nc(-c2n[nH]c3cc(F)c(F)cc23)ccc1C(N)=O [Compound 101] | > 10000 nM |
| Cc1nc(-c2n[nH]c3cc(F)c(F)cc23)ccc1C(=O)N(C)C [Compound 102] | > 10000 nM |
| Cc1nc(-c2n[nH]c3cc(F)c(F)cc23)ccc1C#N [Compound 103] | < 100 nM |
| CC1c2nc(-c3n[nH]c4cc(F)c(F)cc34)ccc2C(=O)N1C (stereo not shown) [Compound 104] | 100 to 1000 nM |
| CC1NC(=O)c2ccc(-c3nn(C)c4cc(F)c(F)cc34)nc21 (stereo not shown) [Compound 105] | > 10000 nM |
| COc1ccc(CN2C(=O)c3ccc(-n4ncc5cc(F)c(F)cc54)nc3C2C)cc1 (stereo not shown) [Compound 106] | > 10000 nM |
| CC1NC(=O)c2ccc(-n3ncc4cc(F)c(F)cc43)nc21 (stereo not shown) [Compound 107] | > 10000 nM |
| CC1NC(=O)c2ccc(-n3cnc4cc(F)c(F)cc43)nc21 (stereo not shown) [Compound 108] | > 10000 nM |
| CC1NC(=O)c2ccc(-c3n[nH]c4ccccc34)cc21 (stereo not shown) [Compound 109] | 100 to 1000 nM |
| CC1(C)NC(=O)c2ccc(-c3n[nH]c4cc(F)c(F)cc34)cc21 [Compound 110] | > 10000 nM |
| Fc1ccc(-c2n[nH]c3cc(F)ccc23)nc1 [Compound 111] | 100 to 1000 nM |
| Fc1ccc(-c2n[nH]c3cccnc23)nc1 [Compound 112] | > 10000 nM |
| Fc1ccc(-c2n[nH]c3ncccc23)cc1 [Compound 113] | 1000 to 10000 nM |
| O=C1NCc2nc(-c3n[nH]c4ccccc34)ccc21 [Compound 114] | 1000 to 10000 nM |
| O=S1(=O)CCNc2ccc(-c3n[nH]c4cc(F)c(F)cc34)nc21 [Compound 115] | > 10000 nM |

From patent publication US12448368B2, “Indole compounds as androgen receptor modulators” (NIDO BIOSCIENCES, INC., priority 2020, dated 2025)
